Legend:
Assay type in all cases: in vivo
winter wheat, TRZAW [1] = test: Method A: safener seed treatment, herbicide post-emergence, greenhouse crop damage test; conditions: safener seed treatment 0.5 g/kg only, no herbicide
Method: (§1) For the safener seed treatment, sufficient seeds were weighed into screw top glass bottles approximately twice the volume of the seeds.
(§2) The safener (mefenpyr-diethyl, formulated as suspension concentrate (SC)) was weighed out so that the required rates (g a.i./kg seed) would be obtained, dissolved in water (1 ml water per 10 g of seeds), and added to the seeds to produce a slurry.
(§3) The bottles were capped and then placed in an overhead shaker (set at medium speed for up to 1 hour) so that the seeds were evenly coated with the slurry. The bottles were uncapped and the seeds were sown as described above.
(§4) For the seed treatment process, the blind formulation (the SC formulation without the safener mefenpyr-diethyl) was used as seed treatment as described above.
Post-emergence application of the herbicide was done when the plants had reached growth stage BBCH11.
(§5) After application, the test plants were kept in the greenhouse under good growth conditions.
(§6) Values in the table below are mean values from at least 3 replicates.

winter wheat, TRZAW [2] = test: Method C: safener seed treatment, herbicide and safener tank mix post-emergence, greenhouse crop damage test; conditions: no herbicide
Method: as §1, §2, §3, §4
Post-emergence application was done when the plants had reached growth stage BBCH11.
The safener (mefenpyr-diethyl) was formulated as wettable powder (WP).
The compounds were sprayed onto the green parts of the plants as an aqueous suspension at an equivalent water application rate of 300 l/ha.
(§7) The combination of herbicide and safener was applied as a tank mix.
as §5, §6

winter wheat, TRZAW [3] = test: Method D: safener seed treatment, herbicide and safener tank mix pre-emergence, greenhouse crop damage test; conditions: no herbicide
Method: as §1, §2, §3, §4
The compounds were sprayed to the soil surface as an aqueous suspension at an equivalent water application rate of 300 l/ha.
as §7, §5, §6

[4] = safener seed treatment 0.5 g/kg only

In the case of `CCOC(=O)C1=NN(c2ccc(Cl)cc2Cl)C(C)(C(=O)OCC)C1` (centres unmarked) [Safener seed treatment, ethyl 1-(2,4-dichlorophenyl)-5-(ethoxycarbonyl)-5-methyl-2-pyrazoline-3-carboxylate], the “% crop damage” value (winter wheat, TRZAW [1]) is reported as 0%, the “% crop damage” value (winter wheat, TRZAW [2]; safener 200 g/ha in tank mix only, post-emergence, 14 days after application) is reported as 5% and the “% crop damage” value (winter wheat, TRZAW [2]; [4]) is reported as 0%. For the same compound, the “% crop damage” value (winter wheat, TRZAW [3]; safener 200 g/ha in tank mix only, pre-emergence, 14 days after application) was 5% and the “% crop damage” value (winter wheat, TRZAW [3]; [4]) was 2%.

— patent US11219209B2, “Method of reducing crop damage” (Bayer Aktiengesellschaft, priority 2018, dated 2022)
